Consider 13 compounds from patent publication US10941136B2, “Quinazoline derivative or its salt and pharmaceutical composition comprising the same” (YUHAN CORPORATION, priority 2016, dated 2021).

The structures appear in SMILES notation.

What all share (format): biochemical
The target of one experiment is T1, PI3Kδ (p110δ/p85α)(h) (Homo sapiens, UniProt O00329).
T1 construct: purchased Upstate (Millipore Co, Billerica, Mass., USA) #14˜604
Nature of the experiment: PI3K-HTRF in vitro enzyme assay, PI3Kδ. The conditions noted are these: enzyme 0.1 μg/ml. How it is done:
(§1) The compounds of the present invention were tested for the activity of phosphatidylinositol 3-kinase delta (PI3K) by using a PI3K enzyme-homogeneous time resolved fluorescence (PI3K-HTRF) kit, which is available under Upstate™ kit (Millipore Co, Billerica, Mass., USA). This kit system measures indirectly the amount of PIP3 produced via PI3K by detecting competitive inhibition of fluorescence complex formation.
(§2) There were used three kinds of buffer solutions, i.e., reaction buffer, stop solution, and detection solution. The reaction buffer was prepared by diluting Reaction Buffer (provided in Update™ kit) with distilled water 4 times and adding DTT to a concentration of 5 mM. The stop solution was prepared by combining STOP A and B Solutions (provided in Update™ kit) in a ratio of 3:1. The detection solution was prepared by combining Detection Solution A, B and C (provided in Update™ kit) in a ratio of 1:1:18. A substrate solution and an ATP solution were prepared by diluting the 1 mM PIP2 (phosphatidyl inositol 4,5 bi-phosphate) stock solution (provided in Update™ kit) and 10 mM ATP (Sigma-aldrich Co., St. Louis, Mo., USA) stock solution with the reaction buffer to concentrations of 20 μM and 40 μM, respectively. An enzyme solution was prepared by diluting PI3Kδ (#14˜604; Upstate™ kit) with the substrate solution to the concentration of 0.2 μg/ml (final reaction concentration: 0.1 μg/ml).
(§3) The test groups were prepared by dissolving each compound in 100% DMSO at 40× the final concentration and then diluting 10-fold with the reaction buffer. 5 μl of each diluted test group solution was transferred to a 384 well low flange white flat bottom microplate (#3572, Corning Life Sciences, Lowell, Mass., USA). We performed centrifuge (1 minute, 1000 rpm) and shaking for 2 minutes after every solution-adding step in this experiment. Next, 10 μl of the enzyme solution was added to each well. A mixed solution of the substrate solution (10 μl) plus 5 μl of the 100% DMSO diluted solution without test compound (i.e., 10% DMSO solution) was used as a negative control. And also, a mixed solution of enzyme solution (10 μl) plus 5 μl of the 100% DMSO diluted solution without test compound (i.e., 10% DMSO solution) was used as a positive control. This plate was pre-incubated for 10 minutes in a 25° C. incubator. After the pre-incubation, the phosphorylation reaction was induced by adding 5 μl of the ATP solution and the plate was incubated for 30 minutes in a 25° C. incubator. This enzyme reaction was stopped by 5 μl of the stop solution and then 5 μl of the detection solution was added thereto. To obtain enough fluorescence responses, the plate was incubated for 2 hours in a 25° C. incubator protected from light.
(§4) The time-resolved fluorescence resonance energy transfer (TR-FRET) rate was measured (emission wavelength: 665 nm, 620 nm, excitation wavelength: 313 nm) by using a Flexstation3 Micro plate reader (Molecular Devices, USA). TR-FRET Rate was calculated based on the Equation 1 and using these TR-FRET Rates, % inhibition rate of each compound was calculated based on the Equation 2. The IC50 values, i.e., the concentration of a test compound that inhibits 50% of PI3Kδ activity in vitro, are generated by Softmax program (Molecular Devices, USA). TR-FRET Rate=(Signal at 665 nm emission wavelength/Signal at 620 nm emission wavelength)×10000 <Equation 1> % Inhibition Rate=[(TR-FRET Rate of the test group−TR-FRET Rate of the positive control group)/(TR-FRET Rate of the negative control group−TR-FRET Rate of the positive control group)]×100 <Equation 2>
In general terms: TR-FRET usually uses a lanthanide donor and a delayed reading to cut background.

In another experiment the target is T2, PI3Kα (p110α/p85α)(h) (Homo sapiens, UniProt P42336).
T2 construct: purchased Upstate (Millipore Co) #14-602
Nature of the experiment: PI3K-HTRF in vitro enzyme assay, PI3Kα. The conditions noted are these: enzyme 0.1 μg/ml. How it is done:
as §1, §2, §3, §4
(§5) The compounds of the present invention were assayed for the activities of PI3K subtypes, i.e., PI3Kα, PI3Kβ and PI3Kγ, using the same procedures as in Experimental Example 1. […]

A further experiment concerns the target T3, PI3Kβ (p110β/p85α)(h) (Homo sapiens, UniProt P42338).
T3 construct: purchased Upstate (Millipore Co) #14-603
Nature of the experiment: PI3K-HTRF in vitro enzyme assay, PI3Kβ. The note with it: enzyme 0.4 μg/ml. The procedure: as §1, §2, §3, §4, §5

A further experiment addresses T4, PI3Kγ (p120γ)(h) (Homo sapiens, UniProt P48736).
T4 construct: purchased Upstate (Millipore Co) #14-558
Nature of the experiment: PI3K-HTRF in vitro enzyme assay, PI3Kγ. The note with it: enzyme 0.4 μg/ml. The procedure:
as §1, §2, §3, §4, §5

T1 sequence (O00329 whole entry): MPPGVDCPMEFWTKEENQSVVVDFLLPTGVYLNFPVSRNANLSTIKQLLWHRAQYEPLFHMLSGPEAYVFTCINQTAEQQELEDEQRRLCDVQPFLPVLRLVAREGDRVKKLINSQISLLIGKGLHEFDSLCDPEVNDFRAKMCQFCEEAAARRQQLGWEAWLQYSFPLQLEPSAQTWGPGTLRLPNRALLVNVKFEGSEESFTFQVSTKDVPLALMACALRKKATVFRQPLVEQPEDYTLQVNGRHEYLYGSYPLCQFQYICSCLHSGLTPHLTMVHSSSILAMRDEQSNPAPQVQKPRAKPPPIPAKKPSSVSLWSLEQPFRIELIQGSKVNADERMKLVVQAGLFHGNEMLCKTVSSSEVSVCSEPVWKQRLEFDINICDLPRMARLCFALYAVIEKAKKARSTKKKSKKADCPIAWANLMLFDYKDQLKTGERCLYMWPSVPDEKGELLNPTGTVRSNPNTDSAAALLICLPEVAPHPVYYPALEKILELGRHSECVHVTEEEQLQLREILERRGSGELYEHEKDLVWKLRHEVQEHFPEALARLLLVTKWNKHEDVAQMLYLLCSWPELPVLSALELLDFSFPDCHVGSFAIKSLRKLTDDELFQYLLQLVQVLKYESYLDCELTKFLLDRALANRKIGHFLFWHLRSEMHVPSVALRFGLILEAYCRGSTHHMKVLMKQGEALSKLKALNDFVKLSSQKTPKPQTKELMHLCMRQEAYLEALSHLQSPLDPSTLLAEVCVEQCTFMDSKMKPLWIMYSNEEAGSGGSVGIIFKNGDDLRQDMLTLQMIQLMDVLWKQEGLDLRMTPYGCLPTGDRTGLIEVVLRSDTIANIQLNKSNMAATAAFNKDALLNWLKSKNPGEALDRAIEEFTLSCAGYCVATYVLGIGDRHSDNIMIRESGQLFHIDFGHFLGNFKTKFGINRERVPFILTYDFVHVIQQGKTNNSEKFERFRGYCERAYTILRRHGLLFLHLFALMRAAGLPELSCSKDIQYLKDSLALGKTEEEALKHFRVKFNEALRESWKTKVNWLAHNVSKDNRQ
T1 sequence (P27986 whole entry partner): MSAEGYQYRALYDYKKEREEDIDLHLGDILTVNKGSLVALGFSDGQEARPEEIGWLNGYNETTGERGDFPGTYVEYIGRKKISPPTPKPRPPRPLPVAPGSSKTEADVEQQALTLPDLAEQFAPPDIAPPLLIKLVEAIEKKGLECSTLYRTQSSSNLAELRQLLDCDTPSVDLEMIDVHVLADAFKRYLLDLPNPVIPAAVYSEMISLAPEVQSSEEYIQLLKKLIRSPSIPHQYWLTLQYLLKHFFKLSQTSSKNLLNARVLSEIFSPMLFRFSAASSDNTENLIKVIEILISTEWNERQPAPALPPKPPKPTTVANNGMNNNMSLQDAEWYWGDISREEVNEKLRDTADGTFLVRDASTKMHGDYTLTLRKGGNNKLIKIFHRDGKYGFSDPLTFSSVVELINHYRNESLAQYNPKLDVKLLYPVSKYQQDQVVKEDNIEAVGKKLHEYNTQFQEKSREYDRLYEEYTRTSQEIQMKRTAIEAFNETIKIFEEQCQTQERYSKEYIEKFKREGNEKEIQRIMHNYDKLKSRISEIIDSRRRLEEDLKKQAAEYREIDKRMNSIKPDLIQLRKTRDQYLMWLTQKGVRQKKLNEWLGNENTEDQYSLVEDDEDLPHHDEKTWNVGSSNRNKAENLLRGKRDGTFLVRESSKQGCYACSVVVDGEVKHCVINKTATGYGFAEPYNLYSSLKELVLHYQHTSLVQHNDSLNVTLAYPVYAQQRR
T3 sequence (P42338 whole entry): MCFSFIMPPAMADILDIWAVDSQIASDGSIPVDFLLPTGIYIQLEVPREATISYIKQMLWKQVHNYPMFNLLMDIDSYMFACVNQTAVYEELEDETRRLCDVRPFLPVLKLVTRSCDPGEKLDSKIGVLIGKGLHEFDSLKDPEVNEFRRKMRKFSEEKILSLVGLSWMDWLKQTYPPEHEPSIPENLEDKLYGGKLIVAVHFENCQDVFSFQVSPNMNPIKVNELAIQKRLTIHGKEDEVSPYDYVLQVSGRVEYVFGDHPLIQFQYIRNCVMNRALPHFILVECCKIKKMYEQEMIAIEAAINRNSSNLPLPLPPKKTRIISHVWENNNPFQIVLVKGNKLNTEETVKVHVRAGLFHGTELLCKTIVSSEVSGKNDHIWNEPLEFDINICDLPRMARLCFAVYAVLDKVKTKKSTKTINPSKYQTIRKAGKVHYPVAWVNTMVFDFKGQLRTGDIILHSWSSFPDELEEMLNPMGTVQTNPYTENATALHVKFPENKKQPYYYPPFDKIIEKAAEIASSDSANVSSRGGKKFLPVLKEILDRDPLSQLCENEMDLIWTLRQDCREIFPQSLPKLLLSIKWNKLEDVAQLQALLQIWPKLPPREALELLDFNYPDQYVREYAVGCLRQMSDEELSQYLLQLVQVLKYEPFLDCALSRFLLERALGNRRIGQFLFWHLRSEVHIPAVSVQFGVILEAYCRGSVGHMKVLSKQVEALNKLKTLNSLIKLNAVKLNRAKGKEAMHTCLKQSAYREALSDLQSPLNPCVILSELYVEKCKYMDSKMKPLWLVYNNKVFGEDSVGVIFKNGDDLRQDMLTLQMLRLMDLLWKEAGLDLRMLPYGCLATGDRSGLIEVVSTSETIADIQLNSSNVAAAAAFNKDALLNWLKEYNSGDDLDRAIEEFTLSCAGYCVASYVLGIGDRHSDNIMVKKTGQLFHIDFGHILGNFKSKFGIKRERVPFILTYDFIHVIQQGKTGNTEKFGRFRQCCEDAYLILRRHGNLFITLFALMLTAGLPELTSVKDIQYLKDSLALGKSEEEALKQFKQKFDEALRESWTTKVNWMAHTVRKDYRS
T3 sequence (P27986 whole entry partner): as the sequence (P27986 whole entry partner) above
T4 sequence (P48736 whole entry): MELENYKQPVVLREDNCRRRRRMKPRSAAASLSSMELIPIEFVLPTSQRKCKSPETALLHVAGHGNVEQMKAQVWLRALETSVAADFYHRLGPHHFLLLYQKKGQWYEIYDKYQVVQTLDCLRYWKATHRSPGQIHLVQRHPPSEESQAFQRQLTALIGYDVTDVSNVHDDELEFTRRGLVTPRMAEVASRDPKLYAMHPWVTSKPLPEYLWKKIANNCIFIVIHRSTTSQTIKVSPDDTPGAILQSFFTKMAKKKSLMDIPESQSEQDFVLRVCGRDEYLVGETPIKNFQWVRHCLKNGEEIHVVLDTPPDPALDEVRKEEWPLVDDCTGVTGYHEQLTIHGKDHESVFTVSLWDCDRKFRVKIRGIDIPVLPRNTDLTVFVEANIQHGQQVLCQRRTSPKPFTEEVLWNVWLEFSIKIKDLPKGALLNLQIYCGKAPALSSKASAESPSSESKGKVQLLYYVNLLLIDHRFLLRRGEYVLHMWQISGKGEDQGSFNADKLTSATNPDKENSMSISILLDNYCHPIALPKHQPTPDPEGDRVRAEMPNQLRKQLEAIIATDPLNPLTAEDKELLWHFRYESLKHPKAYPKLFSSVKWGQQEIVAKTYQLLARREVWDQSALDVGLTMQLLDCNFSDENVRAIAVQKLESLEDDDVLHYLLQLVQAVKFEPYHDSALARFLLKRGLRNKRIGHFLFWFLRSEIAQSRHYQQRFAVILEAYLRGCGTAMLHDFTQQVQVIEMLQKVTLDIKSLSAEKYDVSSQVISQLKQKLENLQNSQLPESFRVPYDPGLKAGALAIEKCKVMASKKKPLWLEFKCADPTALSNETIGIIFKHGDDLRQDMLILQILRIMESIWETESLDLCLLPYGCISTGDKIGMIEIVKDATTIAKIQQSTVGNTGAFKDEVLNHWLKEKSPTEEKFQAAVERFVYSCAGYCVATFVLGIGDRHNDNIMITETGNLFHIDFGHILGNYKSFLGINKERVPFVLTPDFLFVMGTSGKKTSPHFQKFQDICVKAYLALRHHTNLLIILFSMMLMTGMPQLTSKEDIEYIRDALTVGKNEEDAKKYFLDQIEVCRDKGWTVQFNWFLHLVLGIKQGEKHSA
T2 sequence (P42336 whole entry): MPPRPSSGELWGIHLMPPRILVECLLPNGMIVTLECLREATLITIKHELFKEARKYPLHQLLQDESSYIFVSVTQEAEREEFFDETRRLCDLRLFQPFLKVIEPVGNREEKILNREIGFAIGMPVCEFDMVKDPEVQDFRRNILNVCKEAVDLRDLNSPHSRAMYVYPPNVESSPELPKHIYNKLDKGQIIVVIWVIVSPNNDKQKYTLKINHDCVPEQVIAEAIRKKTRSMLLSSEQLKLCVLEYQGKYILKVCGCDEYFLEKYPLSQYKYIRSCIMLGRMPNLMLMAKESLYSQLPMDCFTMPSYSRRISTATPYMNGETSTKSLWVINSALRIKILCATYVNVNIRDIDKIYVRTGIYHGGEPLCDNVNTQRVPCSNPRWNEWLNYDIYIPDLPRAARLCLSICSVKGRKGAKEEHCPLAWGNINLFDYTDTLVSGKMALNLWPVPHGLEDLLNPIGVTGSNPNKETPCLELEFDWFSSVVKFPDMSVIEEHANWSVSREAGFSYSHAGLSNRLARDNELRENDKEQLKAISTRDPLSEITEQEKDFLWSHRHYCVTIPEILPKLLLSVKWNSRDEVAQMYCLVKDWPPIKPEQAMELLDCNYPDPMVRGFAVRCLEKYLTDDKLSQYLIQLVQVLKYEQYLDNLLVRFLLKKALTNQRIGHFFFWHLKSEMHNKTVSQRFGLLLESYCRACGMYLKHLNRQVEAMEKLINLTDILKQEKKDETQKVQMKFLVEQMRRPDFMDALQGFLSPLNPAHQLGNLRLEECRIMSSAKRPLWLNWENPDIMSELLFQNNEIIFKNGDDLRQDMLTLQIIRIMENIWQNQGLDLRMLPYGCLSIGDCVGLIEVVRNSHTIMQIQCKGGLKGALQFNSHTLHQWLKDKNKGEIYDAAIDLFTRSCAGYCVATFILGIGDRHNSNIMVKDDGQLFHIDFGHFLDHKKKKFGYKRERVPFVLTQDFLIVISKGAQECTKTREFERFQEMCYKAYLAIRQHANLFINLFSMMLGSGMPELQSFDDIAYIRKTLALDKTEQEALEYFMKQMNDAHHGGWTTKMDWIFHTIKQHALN
T2 sequence (P27986 whole entry partner): as the sequence (P27986 whole entry partner) above

What is called IC50 is the point on the concentration scale where inhibition reaches its midpoint. Read a low IC50 as greater potency in that assay. Take `CC[C@H](Nc1ncnc2ccc(C#N)cc12)c1nc2cccc(-c3cncnc3)c2c(=O)n1C1CC1` [Example 20, (S)-4-((1-(3-cyclopropyl-4-oxo-5-(pyrimidin-5-yl)-3,4-dihydroquinazolin-2-yl)propyl)amino)quinazoline-6-carbonitrile]: the IC50 was found to be 0.015 µM against PI3Kδ (p110δ/p85α)(h), 2.44 µM against PI3Kα (p110α/p85α)(h), 8.95 µM at PI3Kβ (p110β/p85α)(h) and 0.819 µM against PI3Kγ (p120γ)(h).

Take `CC[C@H](Nc1ncnc2ccc(C#N)cc12)c1nc2cccc(-c3cnc(N)nc3)c2c(=O)n1C1CC1` [Example 21, (S)-4-((1-(5-(2-aminopyrimidin-5-yl)-3-cyclopropyl-4-oxo-3,4-dihydroquinazolin-2-yl)propyl)amino)quinazoline-6-carbonitrile]: the IC50 at PI3Kδ (p110δ/p85α)(h) was found to be 0.013 µM; against PI3Kα (p110α/p85α)(h) it was 0.65 µM; against PI3Kβ (p110β/p85α)(h), 3.73 µM; on PI3Kγ (p120γ)(h) it was 0.371 µM.

On to `CC[C@H](Nc1ncnc2cccc(F)c12)c1nc2cccc(-c3cnc(N)nc3)c2c(=O)n1-c1ccccc1` [Example 25, (S)-5-(2-aminopyrimidin-5-yl)-2-(1-((5-fluoroquinazolin-4-yl)amino)propyl)-3-phenylquinazolin-4(3H)-one], for which the IC50 came to 0.01 µM on PI3Kδ (p110δ/p85α)(h), 1.46 µM at PI3Kα (p110α/p85α)(h), 9.59 µM against PI3Kβ (p110β/p85α)(h) and 1.23 µM against PI3Kγ (p120γ)(h).

In the case of `Nc1ncc(-c2cccc3nc([C@@H](Nc4ncnc5cccc(F)c45)C4CC4)n(-c4ccccc4)c(=O)c23)cn1` [Example 31, (S)-5-(2-aminopyrimidin-5-yl)-2-(cyclopropyl((5-fluoroquinazolin-4-yl)amino)methyl)-3-phenylquinazolin-4(3H)-one], the IC50 on PI3Kδ (p110δ/p85α)(h) came to 0.003 µM; at PI3Kα (p110α/p85α)(h), 0.652 µM; at PI3Kβ (p110β/p85α)(h), 9.31 µM; against PI3Kγ (p120γ)(h), 0.442 µM.

Consider `C[C@H](Nc1ncnc2ccc(C#N)cc12)c1cc2cccc(-c3cncnc3)c2c(=O)n1-c1ccccc1` [Example 32, (S)-4-((1-(1-oxo-2-phenyl-8-(pyrimidin-5-yl)-1,2-dihydroisoquinolin-3-yl)ethyl)amino)quinazoline-6-carbonitrile], for which the IC50 is 0.002 µM on PI3Kδ (p110δ/p85α)(h), 1.73 µM at PI3Kα (p110α/p85α)(h), 4.8 µM against PI3Kβ (p110β/p85α)(h) and 0.416 µM at PI3Kγ (p120γ)(h).

On to `COc1ncc(-c2cccc3cc([C@H](C)Nc4ncnc5ccc(C#N)cc45)n(-c4ccccc4)c(=O)c23)cn1` [Example 33, (S)-4-((1-(8-(2-methoxypyrimidin-5-yl)-1-oxo-2-phenyl-1,2-dihydroisoquinolin-3-yl)ethyl)amino)quinazoline-6-carbonitrile], for which the IC50 is 0.01 µM at PI3Kδ (p110δ/p85α)(h), 1.24 µM at PI3Kα (p110α/p85α)(h), 6.69 µM against PI3Kβ (p110β/p85α)(h) and 0.155 µM against PI3Kγ (p120γ)(h).

As to `CCOc1ncc(-c2cccc3cc([C@H](C)Nc4ncnc5ccc(C#N)cc45)n(-c4ccccc4)c(=O)c23)cn1` [Example 34, (S)-4-((1-(8-(2-ethoxypyrimidin-5-yl)-1-oxo-2-phenyl-1,2-dihydroisoquinolin-3-yl)ethyl)amino)quinazoline-6-carbonitrile], the IC50 came out at 0.017 µM against PI3Kδ (p110δ/p85α)(h), 1.35 µM against PI3Kα (p110α/p85α)(h), 7.39 µM at PI3Kβ (p110β/p85α)(h) and 0.324 µM on PI3Kγ (p120γ)(h).

Regarding `C[C@H](Nc1ncnc2ccc(C#N)cc12)c1cc2cccc(-c3cnc(N(C)C)nc3)c2c(=O)n1-c1ccccc1` [Example 35, (S)-4-((1-(8-(2-(dimethylamino)pyrimidin-5-yl)-1-oxo-2-phenyl-1,2-dihydroisoquinolin-3-yl)ethyl)amino)quinazoline-6-carbonitrile], the IC50 was 0.025 µM against PI3Kδ (p110δ/p85α)(h), 0.673 µM against PI3Kα (p110α/p85α)(h), 5.31 µM against PI3Kβ (p110β/p85α)(h) and 0.093 µM against PI3Kγ (p120γ)(h).

With `C[C@H](Nc1ncnc2ccc(C#N)cc12)c1cc2cccc(-c3cnc(C4CC4)nc3)c2c(=O)n1-c1ccccc1` [Example 37, (S)-4-((1-(8-(2-cyclopropylpyrimidin-5-yl)-1-oxo-2-phenyl-1,2-dihydroisoquinolin-3-yl)ethyl)amino)quinazoline-6-carbonitrile], the IC50 against PI3Kδ (p110δ/p85α)(h) turned out to be 0.01 µM; on PI3Kα (p110α/p85α)(h), 0.418 µM; at PI3Kβ (p110β/p85α)(h), 8.76 µM; against PI3Kγ (p120γ)(h), 0.067 µM.

For `Cc1ncc(-c2cccc3cc([C@H](C)Nc4ncnc5ccc(C#N)cc45)n(-c4ccc(F)cc4)c(=O)c23)cn1` [Example 38, (S)-4-((1-(2-(4-fluorophenyl)-8-(2-methylpyrimidin-5-yl)-1-oxo-1,2-dihydroisoquinolin-3-yl)ethyl)amino)quinazoline-6-carbonitrile], the IC50 turned out to be 0.026 µM against PI3Kδ (p110δ/p85α)(h), 0.635 µM against PI3Kα (p110α/p85α)(h), 9.82 µM against PI3Kβ (p110β/p85α)(h) and 0.067 µM at PI3Kγ (p120γ)(h).

`CCOc1ncc(-c2cccc3cc([C@H](CC)Nc4ncnc5ccc(C#N)cc45)n(-c4ccccc4)c(=O)c23)cn1` [Example 41, (S)-4-((1-(8-(2-ethoxypyrimidin-5-yl)-1-oxo-2-phenyl-1,2-dihydroisoquinolin-3-yl)propyl)amino)quinazoline-6-carbonitrile]: the IC50 on PI3Kδ (p110δ/p85α)(h) amounted to 0.002 µM; on PI3Kα (p110α/p85α)(h), 0.909 µM; on PI3Kβ (p110β/p85α)(h), 9.38 µM; at PI3Kγ (p120γ)(h), 0.489 µM.

Turning to `C[C@H](Nc1ncnc2cccc(F)c12)c1cc2cccc(-c3cnc(N)nc3)c2c(=O)n1-c1ccccc1` [Example 43, (S)-8-(2-aminopyrimidin-5-yl)-3-(1-((5-fluoroquinazolin-4-yl)amino)ethyl)-2-phenylisoquinolin-1(2H)-one], the IC50 on PI3Kδ (p110δ/p85α)(h) stood at 0.013 µM; at PI3Kα (p110α/p85α)(h), 2.67 µM; against PI3Kβ (p110β/p85α)(h), 8.86 µM; against PI3Kγ (p120γ)(h), 0.283 µM.

As for `CC(C)[C@H](Nc1ncnc2cccc(F)c12)c1cc2cccc(-c3cnc(N)nc3)c2c(=O)n1-c1ccccc1` [Example 46, (S)-8-(2-aminopyrimidin-5-yl)-3-(1-((5-fluoroquinazolin-4-yl)amino)-2-methylpropyl)-2-phenylisoquinolin-1(2H)-one], the IC50 is 0.012 µM on PI3Kδ (p110δ/p85α)(h), 2.95 µM against PI3Kα (p110α/p85α)(h), 7.95 µM against PI3Kβ (p110β/p85α)(h) and 1.58 µM against PI3Kγ (p120γ)(h).
